Data taken from PMC3859608, “C-Terminus of the B-Chain of Relaxin-3 Is Important for Receptor Activity” (PLoS ONE, 2013).
No end group written: not given here.

Legend:
RXFP4 [1] = target: T1, RXFP4 (Homo sapiens, UniProt Q8TDU9); assay: Competition binding, Eu-labelled mouse INSL5, CHO-K1 cells expressing RXFP4; settings: CHO-K1 cells stably expressing RXFP4; Eu-labelled mouse INSL5 2.5 nM; one site competition fit; mean ± SEM, n = 3, triplicate determinations; vs H3 acid: * H3 amide, ** p<0.01 H3 A-acid; read-out: RXFP4 Eu-INSL5 pKi (converted)
T1 construct: expressed in transfected cells
Procedure: (§1) The receptor binding affinity of the peptides was measured using CHO-K1 cells stably expressing RXFP3 and RXFP4. The competition binding assays were carried out as previously described, [27]. Briefly, a single concentration of Eu-labelled I5/R3 (0.5 nM) or Eu-labelled mouse INSL5 (2.5 nM) were used in presence of increasing concentration of peptides. The data were analyzed using GraphPad PRISM 5 (GraphPad Inc., San Diego, USA). The europium binding curves were fitted to a one site competition curve and the pKi values were expressed as the mean ± SEM of at least three independent experiments with triplicate determinations within each assay.
(§2) Figure 3 Receptor binding affinity (pKi) and cAMP activity (pEC-50) curves of H3 relaxin and its variants at RXFP4. A) Competition binding curves of H3 relaxin variants at RXFP4 using a single concentration of Eu-INSL5 (2.5 nM) in the presence of increasing concentrations of the H3 relaxin peptides. B) RXFP4 activation curves of H3 relaxin variants measured in a cAMP activity assays in the presence of 1 µM forskolin. The data were expressed as mean ± SEM from at least three independent experiments.

RXFP3 [2] = target: T2, RXFP3 (Homo sapiens, UniProt Q9NSD7); assay: cAMP activity (inhibition of forskolin-induced cAMP), CHO-K1 cells expressing RXFP3; assay type: cell-based; settings: CHO-K1 RXFP3, pCRE-β-galactosidase reporter; forskolin 1 µM (method) / 5 µM (Fig. 2 legend); peptide 0.01 nM – 1 µM; mean ± SEM, n = 3, triplicate determinations; ** p<0.01 vs H3 acid (H3 amide, H3 A-acid); read-out: RXFP3 cAMP pEC50 (converted)
T2 construct: expressed in transfected cells
T2 sequence (Q9NSD7 1-469): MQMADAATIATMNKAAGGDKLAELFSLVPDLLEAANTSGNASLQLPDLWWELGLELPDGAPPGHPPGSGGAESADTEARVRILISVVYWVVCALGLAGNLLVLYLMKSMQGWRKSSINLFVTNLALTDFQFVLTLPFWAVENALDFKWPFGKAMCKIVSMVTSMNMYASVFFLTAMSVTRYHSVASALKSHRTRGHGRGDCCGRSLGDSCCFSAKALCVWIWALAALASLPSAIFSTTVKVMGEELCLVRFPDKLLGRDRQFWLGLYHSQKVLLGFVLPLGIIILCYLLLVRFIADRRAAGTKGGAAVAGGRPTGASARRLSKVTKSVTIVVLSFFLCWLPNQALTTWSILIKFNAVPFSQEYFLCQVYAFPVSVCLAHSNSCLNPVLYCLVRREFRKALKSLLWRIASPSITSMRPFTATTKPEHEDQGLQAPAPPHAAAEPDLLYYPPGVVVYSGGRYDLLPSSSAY
Procedure: (§3) The ability of the peptides to activate the receptors RXFP3/RXFP4 was assessed by measuring their influence on cAMP signalling in CHO-K1 cells stably expressing RXFP3 or RXFP4 transfected with a pCRE-β-galactosidase reporter gene construct as previously described. A single concentration of forskolin was used to stimulate cAMP signalling in cells expressing RXFP3 (1 µM) and RXFP4 (5 µM) and peptide induced inhibition of cAMP signalling was measured by adding increasing concentrations of the peptides (0.01 nM – 1 µM). The ability of the peptides to inhibit forskolin-induced cAMP response (pEC50) was measured and expressed as mean ± SEM from three independent experiments with triplicate determinations within each assay. The inhibition curves were fitted to a single-site sigmoidal dose-response curve with variable slope using Graphpad PRISM 5.
(§4) Figure 2 Receptor binding affinity (pKi) and cAMP activity (pEC-50) curves of H3 relaxin and its variants at RXFP3. A) Competition binding curves of H3 relaxin variants using a single concentration of Eu-I5/R3 (0.5 nM) in the presence of increasing concentrations of the H3 relaxin peptides. B) RXFP3 activation curves of H3 relaxin variants measured in a cAMP activity assay in the presence of 5 µM forskolin. The data were expressed as mean ± SEM. from at least three independent experiments.

RXFP3 [3] = target: T2, RXFP3; assay: Competition binding, Eu-labelled I5/R3, CHO-K1 cells expressing RXFP3; settings: CHO-K1 cells stably expressing RXFP3; Eu-I5/R3 0.5 nM; one site competition fit; mean ± SEM, n in parentheses in cell (3; H3 amide 4), triplicate determinations; ** p<0.01 vs H3 acid (H3 amide, H3 A-acid); read-out: RXFP3 Eu-H3/I5 pKi (converted)
Procedure: as §1, §4

RXFP4 [4] = target: T1, RXFP4; assay: cAMP activity (inhibition of forskolin-induced cAMP), CHO-K1 cells expressing RXFP4; assay type: cell-based; settings: CHO-K1 RXFP4, pCRE-β-galactosidase reporter; forskolin 5 µM (method) / 1 µM (Fig. 3 legend); peptide 0.01 nM – 1 µM; mean ± SEM, n = 3, triplicate determinations; vs H3 acid: * H3 amide, ** p<0.01 H3 A-acid; read-out: RXFP4 cAMP pEC50 (converted)
Procedure: as §3, §2

[5] = cited from earlier work; for activity by C-terminal form: C-terminal amide vs acid
From the text: The bioactivity of many polypeptide hormones often requires a form of post-translational modification of their precursors. An example of a widespread modification is C-terminal amidation which often leads to an increase in bioactivity of peptides [32]–[35]. In some cases, amidation of the C-terminus has been reported to have detrimental effect on the activity of peptides, [36]. […] In the case of relaxin family peptides, H2 relaxin and INSL3, both p ...

T1 sequence (Q8TDU9 whole entry, species assumed): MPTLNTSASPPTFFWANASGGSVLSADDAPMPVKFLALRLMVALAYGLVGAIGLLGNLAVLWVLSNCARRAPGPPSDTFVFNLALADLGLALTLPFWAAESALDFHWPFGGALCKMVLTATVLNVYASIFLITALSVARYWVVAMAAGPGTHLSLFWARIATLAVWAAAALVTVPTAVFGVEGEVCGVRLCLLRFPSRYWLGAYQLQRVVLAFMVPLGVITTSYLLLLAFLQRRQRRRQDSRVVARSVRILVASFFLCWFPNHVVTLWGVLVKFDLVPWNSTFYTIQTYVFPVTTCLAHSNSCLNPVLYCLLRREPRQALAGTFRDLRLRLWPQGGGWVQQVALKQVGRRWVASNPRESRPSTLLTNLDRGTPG

With `CC[C@H](C)[C@@H]1NC(=O)[C@H](Cc2ccccc2)NC(=O)[C@H](CCC(=O)O)NC(=O)[C@H](CCCNC(=N)N)NC(=O)CNC(=O)[C@@H](NC(=O)[C@H](CC(C)C)NC(=O)[C@H](CCCNC(=N)N)NC(=O)[C@@H](NC(=O)CNC(=O)[C@H](Cc2ccc(O)cc2)NC(=O)[C@@H]2CCCN2C(=O)[C@H](C)NC(=O)[C@H](C)NC(=O)[C@@H](N)CCCNC(=N)N)C(C)C)CSSC[C@@H]2NC(=O)[C@@H](NC(=O)[C@H](CO)NC(=O)[C@H](CO)NC(=O)[C@H](CO)NC(=O)[C@H](CC(C)C)NC(=O)CNC(=O)[C@H](C)NC(=O)[C@H](CC(C)C)NC(=O)[C@@H](NC(=O)[C@@H](N)CC(=O)O)C(C)C)CSSC[C@H](NC(=O)CNC(=O)[C@H](Cc3c[nH]c4ccccc34)NC(=O)[C@H](CCCCN)NC2=O)C(=O)N[C@@H](CO)C(=O)N[C@@H](CCCCN)C(=O)N[C@@H](CO)C(=O)N[C@@H](CCC(=O)O)C(=O)N[C@@H]([C@@H](C)CC)C(=O)N[C@@H](CO)C(=O)N[C@@H](CO)C(=O)N[C@@H](CC(C)C)C(=O)N[C@H](C(N)=O)CSSC[C@@H](C(=O)NCC(=O)NCC(=O)N[C@@H](CO)C(=O)N[C@@H](CCCNC(=N)N)C(=O)N[C@@H](Cc2c[nH]c3ccccc23)C(N)=O)NC(=O)[C@H]([C@@H](C)O)NC(=O)[C@H](Cc2ccccc2)NC(=O)[C@H]([C@@H](C)CC)NC(=O)[C@H](C(C)C)NC(=O)[C@H](C)NC(=O)[C@H](CCCNC(=N)N)NC1=O` [H3 amide] as the molecule, how does the Ki (RXFP4 [1]) read?
Its Ki is 39.8 nM.

What about the EC50 (RXFP3 [2]) of the same molecule?
Its EC50 is 7.24 nM.

And the Ki (RXFP3 [3])?
The Ki was 158 nM.

And the EC50 (RXFP4 [4])?
Its EC50 is 4.17 nM.

For angiotensin II: polypeptide hormone, which “activity by C-terminal form” value [5] is on record?
Its value is “active as a C-terminal acid form”.

With `CC[C@H](C)[C@@H]1NC(=O)[C@H](Cc2ccccc2)NC(=O)[C@H](CCC(=O)O)NC(=O)[C@H](CCCNC(=N)N)NC(=O)CNC(=O)[C@@H](NC(=O)[C@H](CC(C)C)NC(=O)[C@H](CCCNC(=N)N)NC(=O)[C@@H](NC(=O)CNC(=O)[C@H](Cc2ccc(O)cc2)NC(=O)[C@@H]2CCCN2C(=O)[C@H](C)NC(=O)[C@H](C)NC(=O)[C@@H](N)CCCNC(=N)N)C(C)C)CSSC[C@@H]2NC(=O)[C@@H](NC(=O)[C@H](CO)NC(=O)[C@H](CO)NC(=O)[C@H](CO)NC(=O)[C@H](CC(C)C)NC(=O)CNC(=O)[C@H](C)NC(=O)[C@H](CC(C)C)NC(=O)[C@@H](NC(=O)[C@@H](N)CC(=O)O)C(C)C)CSSC[C@H](NC(=O)CNC(=O)[C@H](Cc3c[nH]c4ccccc34)NC(=O)[C@H](CCCCN)NC2=O)C(=O)N[C@@H](CO)C(=O)N[C@@H](CCCCN)C(=O)N[C@@H](CO)C(=O)N[C@@H](CCC(=O)O)C(=O)N[C@@H]([C@@H](C)CC)C(=O)N[C@@H](CO)C(=O)N[C@@H](CO)C(=O)N[C@@H](CC(C)C)C(=O)N[C@H](C(=O)O)CSSC[C@@H](C(=O)NCC(=O)NCC(=O)N[C@@H](CO)C(=O)N[C@@H](CCCNC(=N)N)C(=O)N[C@@H](Cc2c[nH]c3ccccc23)C(N)=O)NC(=O)[C@H]([C@@H](C)O)NC(=O)[C@H](Cc2ccccc2)NC(=O)[C@H]([C@@H](C)CC)NC(=O)[C@H](C(C)C)NC(=O)[C@H](C)NC(=O)[C@H](CCCNC(=N)N)NC1=O` [H3 A-acid] as the molecule, how does the Ki (RXFP4 [1]) read?
The Ki was 117 nM.

What about the EC50 (RXFP3 [2]) of the same molecule?
Its EC50 is 4.9 nM.

What about the Ki (RXFP3 [3]) of the same molecule?
The Ki was 151 nM.

What about the EC50 (RXFP4 [4]) of the same molecule?
Its EC50 is 34.7 nM.

For `CC[C@H](C)[C@@H]1NC(=O)[C@H](Cc2ccccc2)NC(=O)[C@H](CCC(=O)O)NC(=O)[C@H](CCCNC(=N)N)NC(=O)CNC(=O)[C@@H](NC(=O)[C@H](CC(C)C)NC(=O)[C@H](CCCNC(=N)N)NC(=O)[C@@H](NC(=O)CNC(=O)[C@H](Cc2ccc(O)cc2)NC(=O)[C@@H]2CCCN2C(=O)[C@H](C)NC(=O)[C@H](C)NC(=O)[C@@H](N)CCCNC(=N)N)C(C)C)CSSC[C@@H]2NC(=O)[C@@H](NC(=O)[C@H](CO)NC(=O)[C@H](CO)NC(=O)[C@H](CO)NC(=O)[C@H](CC(C)C)NC(=O)CNC(=O)[C@H](C)NC(=O)[C@H](CC(C)C)NC(=O)[C@@H](NC(=O)[C@@H](N)CC(=O)O)C(C)C)CSSC[C@H](NC(=O)CNC(=O)[C@H](Cc3c[nH]c4ccccc34)NC(=O)[C@H](CCCCN)NC2=O)C(=O)N[C@@H](CO)C(=O)N[C@@H](CCCCN)C(=O)N[C@@H](CO)C(=O)N[C@@H](CCC(=O)O)C(=O)N[C@@H]([C@@H](C)CC)C(=O)N[C@@H](CO)C(=O)N[C@@H](CO)C(=O)N[C@@H](CC(C)C)C(=O)N[C@H](C(=O)O)CSSC[C@@H](C(=O)NCC(=O)NCC(=O)N[C@@H](CO)C(=O)N[C@@H](CCCNC(=N)N)C(=O)N[C@@H](Cc2c[nH]c3ccccc23)C(=O)O)NC(=O)[C@H]([C@@H](C)O)NC(=O)[C@H](Cc2ccccc2)NC(=O)[C@H]([C@@H](C)CC)NC(=O)[C@H](C(C)C)NC(=O)[C@H](C)NC(=O)[C@H](CCCNC(=N)N)NC1=O` [H3 acid], which Ki (RXFP4 [1]) is on record?
The Ki was 8.71 nM.

What about the Ki (RXFP3 [3]) of the same molecule?
Its Ki is 18.6 nM.

And the EC50 (RXFP4 [4])?
The EC50 was 1.15 nM.

Which “activity by C-terminal form” value [5] does the source give for Oxytocin: polypeptide hormone here?
Its value is “only active as a C-terminal amide form”.

B1: INSL3: relaxin family peptide (peptide, UniProt P51460 21-55; P51460 106-131, looked up)
Insulin-like 3 B chain: LGPAPTPEMREKLCGHHFVRALVRVCGGPRWSTEA
Insulin-like 3 A chain: AAATNPARYCCLSGCTQQDLLTLCPY
modifications: not fully specified (bridges); ends and bridges not checked
notes: relaxin family peptide
With B1 as the molecule, how does the “activity of acid vs amide form” value [5] read?
The value was “equally active either in acid or amide form”.
